Laboratory results taken from patent US9867811B2, “Method of treating atherosclerosis in high triglyceride subjects” (NOVARTIS AG, priority 2011, dated 2018).

Tests used:
[1] = test system: CETP; assay: Ex vivo CETP activity in plasma of hamsters (saline or Triton WR-1339 treated); details: hamster; for Inhibition of CETP activity, lower dose group, Triton WR-1339 group / Inhibition of CETP activity, lower dose group, saline group: oral gavage: Torcetrapib 5 mg/kg, Anacetrapib 1.5 mg/kg, Example 49 1.5 mg/kg, Example 8 0.75 mg/kg; for Inhibition of CETP activity, lower dose group, Triton WR-1339 group / Inhibition of CETP activity, higher dose group, Triton WR-1339 group: Triton WR-1339 100 mg/kg i.v.; for Inhibition of CETP activity, lower dose group, Triton WR-1339 group: not significant vs vehicle; for Inhibition of CETP activity, lower dose group, saline group / Inhibition of CETP activity, higher dose group, saline group: saline i.v.; for Inhibition of CETP activity, higher dose group, Triton WR-1339 group / Inhibition of CETP activity, higher dose group, saline group: oral gavage: Torcetrapib 10 mg/kg, Anacetrapib 3 mg/kg, Example 49 3 mg/kg, Example 8 1.5 mg/kg
Experimental: Nine- to ten-week-old, male golden Syrian hamsters were purchased from Japan SLC Inc. (Shizuoka, Japan). Animals underwent a more than 1-week acclimation period under the following conditions: 8:00/20:00 light/dark cycle, room temperature 23±2° C. […] During this time, animals received filtered (0.5 μm) water and a standard chow diet ad libitum.
Whole blood samples were collected using a heparin-washed syringe (Heparin sodium injection “Ajinomoto”; Ajinomoto, Tokyo, Japan) from the abdominal vein by venipuncture under isoflurane (Abbott Japan Co. Ltd.) inhalant anesthesia. After centrifugation at 15,000 rpm for 10 min at 4° C., heparinized plasma was prepared and stored at −80° C. until use.
CETP activity (RFU/min) was defined as the change in fluorescence intensity from 30 to 90 min.
The effect of an acute increase of plasma triglycerides in vivo (acute increase in triglyceride-rich particles) on the ability of Torcetrapib to alter plasma CETP activity, triglyceride and total cholesterol levels was investigated. Torcetrapib at doses of 3, 10 or 30 mg/kg or vehicle was administered once by gavage to hamsters fed a standard chow diet.
Compound or vehicle was administered once by gavage to hamsters fed a standard chow diet.

[2] = target: T1, CETP (Macaca fascicularis, UniProt P47896); assay: Plasma CETP activity in cynomolgus monkeys on chow or high carbohydrate diet; type: in vivo; details: for CETP activity % Δ vs day 0, Day 7, Chow / CETP activity % Δ vs day 0, Day 14, Chow: chow diet; for CETP activity % Δ vs day 0, Day 7, Chow / CETP activity % Δ vs day 0, Day 7, High CHO: day 7, Example 8 3 mg/kg; for CETP activity % Δ vs day 0, Day 7, Chow / CETP activity % Δ vs day 0, Day 14, Chow / CETP activity % Δ vs day 0, Day 7, High CHO / CETP activity % Δ vs day 0, Day 14, High CHO: Anacetrapib 10 mg/kg, mean ± SD; for CETP activity % Δ vs day 0, Day 14, Chow / CETP activity % Δ vs day 0, Day 14, High CHO: day 14, Example 8 3 mg/kg; for CETP activity % Δ vs day 0, Day 7, High CHO / CETP activity % Δ vs day 0, Day 14, High CHO: high carbohydrate diet
T1 construct: from tissue; host or cells: EDTA plasma of cynomolgus monkeys dosed orally
T1 sequence (P47896 18-493): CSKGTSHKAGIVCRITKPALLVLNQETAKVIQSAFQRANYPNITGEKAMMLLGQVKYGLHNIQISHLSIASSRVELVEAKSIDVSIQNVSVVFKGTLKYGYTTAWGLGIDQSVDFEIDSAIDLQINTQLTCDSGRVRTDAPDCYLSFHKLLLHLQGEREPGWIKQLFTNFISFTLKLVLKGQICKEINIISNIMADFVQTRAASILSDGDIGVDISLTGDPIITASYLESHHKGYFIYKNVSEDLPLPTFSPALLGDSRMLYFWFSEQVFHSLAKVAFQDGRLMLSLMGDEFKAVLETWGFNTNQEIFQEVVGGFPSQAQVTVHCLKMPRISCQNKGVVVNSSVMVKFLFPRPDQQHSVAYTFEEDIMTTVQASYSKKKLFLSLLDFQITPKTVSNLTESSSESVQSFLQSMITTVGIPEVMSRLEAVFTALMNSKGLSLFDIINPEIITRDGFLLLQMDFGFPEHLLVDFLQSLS
Description: (§1) Normal male cynomolgus monkeys (n=17) weighing between 8-14 kg are placed on a high-carbohydrate, low-fat diet. The caloric composition of the diet is approximately 13.4% protein, 79.1% carbohydrate (sugar to starch ratio 50:50) and 7.5% fat. Calories are derived from standard monkey chow (LabDiet® 5047, PMI, Richmond, Ind. or LabDiet® 5000, Balanced Fiber diet, PMI, Richmond, Ind.) in quantities necessary to meet the protein and fat requirements, with the remaining calories provided by sugar-sweetened cereals, candies, and fruit (banana, orange, cantaloupe, honeydew, pineapple). The high-carbohydrate (CHO) diet will be fed for 18 days (4 days of pre-drug diet, 14 days of drug treatment), after which time they will return to their regular chow diets for a 14 day washout period followed by a second 14 day dosing phase of the study (normal diet).
(§2) Compound of Example 8 is dissolved at 30 mg/mL in 1M NaOH+ethanol:maisoel glyceride:propylene glycol:cremophor RH40 (10:36:9:45) and diluted 1:10 in ddH2O. […] The formulations are prepared each day (weekend doses are prepared on Friday) and stored stirring and protected from light at room temperature until dosing. Artificial flavor and color will be added to the dose when prepared.
(§3) The animals will ingest the compounds (1 mL/kg) voluntarily from a plastic syringe offered at their home cage at approximately 8 am daily. Animals will be fed 60 minutes after the dose is administered.
(§4) Blood collection will take place weekly during each dosing phase. Animals are fasted overnight (approximately 16 hours) prior to blood collection. Blood samples are collected from a saphenous vein via needle and syringe and put into 2 mL EDTA-coated tubes that are immediately placed on ice until centrifugation. Samples are centrifuged at 3,000 rpm for 20 minutes. The plasma is collected, divided into aliquots (listed below), and stored at −70° C. until analysis.

[3] = Plasma drug concentration in cynomolgus monkeys on chow or high carbohydrate diet; type: in vivo; details: Example 8 3 mg/kg, Anacetrapib 10 mg/kg, mean ± SD; for Plasma [drug] ng/mL, Day 7, Chow / Plasma [drug] ng/mL, Day 14, Chow: chow diet; for Plasma [drug] ng/mL, Day 7, Chow / Plasma [drug] ng/mL, Day 7, High CHO: day 7, daily oral; for Plasma [drug] ng/mL, Day 14, Chow / Plasma [drug] ng/mL, Day 14, High CHO: day 14, daily oral; for Plasma [drug] ng/mL, Day 7, High CHO / Plasma [drug] ng/mL, Day 14, High CHO: high carbohydrate diet
Description: as §1, §2, §3, §4

Compound	Inhibition of CETP activity, lower dose group, Triton WR-1339 group [1] [%]	Inhibition of CETP activity, lower dose group, saline group [1] [%]	Inhibition of CETP activity, higher dose group, Triton WR-1339 group [1] [%]	Inhibition of CETP activity, higher dose group, saline group [1] [%]	CETP inhibitory activity in monkeys with diet-induced hypertriglyceridemia ([2]; TG>500 mg/dL)	CETP activity % Δ vs day 0, Day 7, Chow [2] [%]	CETP activity % Δ vs day 0, Day 14, Chow [2] [%]	CETP activity % Δ vs day 0, Day 7, High CHO [2] [%]	CETP activity % Δ vs day 0, Day 14, High CHO [2] [%]	Plasma [drug] ng/mL, Day 7, Chow [3] [ng/mL]	Plasma [drug] ng/mL, Day 14, Chow [3] [ng/mL]	Plasma [drug] ng/mL, Day 7, High CHO [3] [ng/mL]	Plasma [drug] ng/mL, Day 14, High CHO [3] [ng/mL]
CC[C@@H]1C[C@H](N(Cc2cc(C(F)(F)F)cc(C(F)(F)F)c2)c2ncc(-c3cnn(C)c3)cn2)C[C@H](CC)N1C(=O)O[C@H]1CC[C@H](C(=O)O)CC1 [Example 8]	20	72	47	79	retains CEPT inhibitory activity	−78 ± 7	−73 ± 9	−72 ± 7	−66 ± 10	983 ± 408	1015 ± 398	1706 ± 949	1709 ± 800
COc1cc(F)c(C(C)C)cc1-c1ccc(C(F)(F)F)cc1CN1C(=O)O[C@H](c2cc(C(F)(F)F)cc(C(F)(F)F)c2)[C@@H]1C [Anacetrapib, reference compound]	8	56	13	78	–	−62 ± 15	−59 ± 19	−33 ± 23	−24 ± 22	272 ± 74	320 ± 93	1836 ± 3694	1437 ± 2935
